Bounds are passed on as bounds.

What is called IC50 is the concentration needed to halve the response being measured.

For one assay, the target named is human PDE4D catalytic domain (Homo sapiens (Human), UniProt Q08499). Description: PDE4 Assay (TR-FRET, FAM-cAMP cleavage). In kind it is biochemical. As to conditions: Table 16, Examples 277-296; read-out: PDE4 IC50 range. The method in brief: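 Readout is Tb-to-FAM time-resolved FRET after nanoparticle capture of AMP, the product of cleaving a cAMP/FAM-cAMP mixture by PDE4D catalytic domain (S380-L740) in the presence of titrated compound. Values are IC50 ranges in nM: concentration halving substrate cleavage relative to controls.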
Sequence of human PDE4D catalytic domain (Q08499 380-740): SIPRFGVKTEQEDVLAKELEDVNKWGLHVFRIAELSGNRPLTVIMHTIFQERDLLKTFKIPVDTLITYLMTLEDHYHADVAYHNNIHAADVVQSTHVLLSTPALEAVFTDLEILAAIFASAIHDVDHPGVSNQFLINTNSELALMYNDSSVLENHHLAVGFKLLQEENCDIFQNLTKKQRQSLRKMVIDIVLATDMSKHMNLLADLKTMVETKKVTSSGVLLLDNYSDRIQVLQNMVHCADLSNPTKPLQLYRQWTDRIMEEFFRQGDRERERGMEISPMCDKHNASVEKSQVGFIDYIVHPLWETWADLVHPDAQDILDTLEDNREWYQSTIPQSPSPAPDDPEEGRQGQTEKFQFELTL
Background: In TR-FRET formats the signal depends on donor and acceptor labels being close together.
Regarding `CCn1nc(C[C@@H](C)COC(=O)C2CCOCC2)c2c1C(=O)NCC1(CCOCC1)C2` [Example 287, [(2R)-3-(1-ethyl-8-oxo-spiro[6,7-dihydro-4H-pyrazolo[3,4-c]azepine-5,4′-tetrahydropyran]-3-yl)-2-methyl-propyl] tetrahydropyran-4-carboxylate], the half-inhibitory concentration (IC50) is less than 100 nM. The same measure, in the same setting: with `CCn1nc(C[C@@H](C)COC(=O)c2cnc(C)nc2)c2c1C(=O)NCC1(CCOCC1)C2` [Example 288, [(2R)-3-(1-ethyl-8-oxo-spiro[6,7-dihydro-4H-pyrazolo[3,4-c]azepine-5,4′-tetrahydropyran]-3-yl)-2-methyl-propyl] 2-methylpyrimidine-5-carboxylate] the figure was less than 100 nM; with `CCn1nc(C[C@@H](C)COC(=O)c2cc(C)n(C)n2)c2c1C(=O)NCC1(CCOCC1)C2` [Example 289, [(2R)-3-(1-ethyl-8-oxo-spiro[6,7-dihydro-4H-pyrazolo[3,4-c]azepine-5,4′-tetrahydropyran]-3-yl)-2-methyl-propyl] 1,5-dimethylpyrazole-3-carboxylate], less than 100 nM; with `CCn1nc(C[C@@H](C)COC(=O)c2csc(C)n2)c2c1C(=O)NCC1(CCOCC1)C2` [Example 290, [(2R)-3-(1-ethyl-8-oxo-spiro[6,7-dihydro-4H-pyrazolo[3,4-c]azepine-5,4′-tetrahydropyran]-3-yl)-2-methyl-propyl] 2-methylthiazole-4-carboxylate], less than 100 nM. The same measure, in the same setting: the result for `CCn1nc(C[C@@H](C)COC(=O)c2cnc(C)s2)c2c1C(=O)NCC1(CCOCC1)C2` [Example 291, [(2R)-3-(1-ethyl-8-oxo-spiro[6,7-dihydro-4H-pyrazolo[3,4-c]azepine-5,4′-tetrahydropyran]-3-yl)-2-methyl-propyl] 2-methylthiazole-5-carboxylate] reads less than 100 nM; that for `CCn1nc(C[C@@H](C)COC(=O)C2CCN(C)CC2)c2c1C(=O)NCC1(CCOCC1)C2` [Example 292, [(2R)-3-(1-ethyl-8-oxo-spiro[6,7-dihydro-4H-pyrazolo[3,4-c]azepine-5,4′-tetrahydropyran]-3-yl)-2-methyl-propyl] 1-methylpiperidine-4-carboxylate], 100 to 500 nM. On the same count and under the same terms, with `CCn1nc(C[C@@H](C)COC(=O)c2cc(C)nc(C)c2)c2c1C(=O)NCC1(CCOCC1)C2` [Example 293, [(2R)-3-(1-ethyl-8-oxo-spiro[6,7-dihydro-4H-pyrazolo[3,4-c]azepine-5,4′-tetrahydropyran]-3-yl)-2-methyl-propyl] 2,6-dimethylpyridine-4-carboxylate] the figure was less than 100 nM. As to `CCn1nc(C[C@@H](C)COC(=O)C2CCN(C(C)=O)CC2)c2c1C(=O)NCC1(CCOCC1)C2` [Example 294, [(2R)-3-(1-ethyl-8-oxo-spiro[6,7-dihydro-4H-pyrazolo[3,4-c]azepine-5,4′-tetrahydropyran]-3-yl)-2-methyl-propyl] 1-acetylpiperidine-4-carboxylate], the IC50 was less than 100 nM. The same measure, in the same setting: the result for `CCn1nc(C[C@@H](C)COC(=O)C2CCN(C(=O)OC)CC2)c2c1C(=O)NCC1(CCOCC1)C2` [Example 295, [(2R)-3-(1-ethyl-8-oxo-spiro[6,7-dihydro-4H-pyrazolo-[3,4-c]azepine-5,4′-tetrahydro-pyran]-3-yl)-2-methyl-propyl] 1-methoxycarbonylpiperidine-4-carboxylate] reads less than 100 nM. On the same count and under the same terms, with `CCn1nc(C[C@@H](C)COC(=O)C2CCN(C(=O)N(C)C)CC2)c2c1C(=O)NCC1(CCOCC1)C2` [Example 296, [(2R)-3-(1-ethyl-8-oxo-spiro[6,7-dihydro-4H-pyrazolo[3,4-c]azepine-5,4′-tetrahydropyran]-3-yl)-2-methyl-propyl] 1-(dimethylcarbamoyl)piperidine-4-carboxylate] the figure was less than 100 nM.

The same assay, now with this note: Table 17, Examples 297-316; read-out: PDE4 IC50 range.
Consider `CCn1nc(CC(C)(C)COC(=O)c2cocn2)c2c1C(=O)NCC1(CCOCC1)C2` [Example 297, [3-(1-ethyl-8-oxo-spiro[6,7-dihydro-4H-pyrazolo[3,4-c]azepine-5,4′-tetrahydro-pyran]-3-yl)-2,2-dimethyl-propyl] oxazole-4-carboxylate], for which the IC50 is less than 100 nM. As to `CCn1nc(CC(C)(C)COC(=O)c2ccn(C)n2)c2c1C(=O)NCC1(CCOCC1)C2` [Example 298, [3-(1-ethyl-8-oxo-spiro[6,7-dihydro-4H-pyrazolo[3,4-c]azepine-5,4′-tetrahydro-pyran]-3-yl)-2,2-dimethyl-propyl] 1-methylpyrazole-3-carboxylate], the IC50 is less than 100 nM.

Take `CCn1nc(CC(C)(C)COC(=O)c2cnn(C)c2)c2c1C(=O)NCC1(CCOCC1)C2` [Example 299, [3-(1-ethyl-8-oxo-spiro[6,7-dihydro-4H-pyrazolo[3,4-c]azepine-5,4′-tetrahydropyran]-3-yl)-2,2-dimethyl-propyl] 1-methylpyrazole-4-carboxylate]: the IC50 is less than 100 nM. The same measure, in the same setting: the result for `CCn1nc(CC(C)(C)COC(=O)c2cn(C)cn2)c2c1C(=O)NCC1(CCOCC1)C2` [Example 300, [3-(1-ethyl-8-oxo-spiro[6,7-dihydro-4H-pyrazolo[3,4-c]azepine-5,4′-tetrahydropyran]-3-yl)-2,2-dimethyl-propyl] 1-methylimidazole-4-carboxylate] reads less than 100 nM; that for `CCn1nc(CC(C)(C)COC(=O)c2coc(C)n2)c2c1C(=O)NCC1(CCOCC1)C2` [Example 301, [3-(1-ethyl-8-oxo-spiro[6,7-dihydro-4H-pyrazolo[3,4-c]azepine-5,4′-tetrahydropyran]-3-yl)-2,2-dimethyl-propyl] 2-methyloxazole-4-carboxylate], less than 100 nM; that for `CCn1nc(CC(C)(C)COC(=O)c2cnc(C)o2)c2c1C(=O)NCC1(CCOCC1)C2` [Example 302, [3-(1-ethyl-8-oxo-spiro[6,7-dihydro-4H-pyrazolo[3,4-c]azepine-5,4′-tetrahydropyran]-3-yl)-2,2-dimethyl-propyl] 2-methyloxazole-5-carboxylate], less than 100 nM. The same measure, in the same setting: with `CCn1nc(CC(C)(C)COC(=O)c2ccns2)c2c1C(=O)NCC1(CCOCC1)C2` [Example 303, [3-(1-ethyl-8-oxo-spiro[6,7-dihydro-4H-pyrazolo[3,4-c]azepine-5,4′-tetrahydro-pyran]-3-yl)-2,2-dimethyl-propyl] isothiazole-5-carboxylate] the figure was less than 100 nM; with `CCn1nc(CC(C)(C)COC(=O)c2cnsc2)c2c1C(=O)NCC1(CCOCC1)C2` [Example 304, [3-(1-ethyl-8-oxo-spiro[6,7-dihydro-4H-pyrazolo[3,4-c]azepine-5,4′-tetrahydro-pyran]-3-yl)-2,2-dimethyl-propyl] isothiazole-4-carboxylate], less than 100 nM; with `CCn1nc(CC(C)(C)COC(=O)c2cscn2)c2c1C(=O)NCC1(CCOCC1)C2` [Example 305, [3-(1-ethyl-8-oxo-spiro[6,7-dihydro-4H-pyrazolo[3,4-c]azepine-5,4′-tetrahydro-pyran]-3-yl)-2,2-dimethyl-propyl] thiazole-4-carboxylate], less than 100 nM. Same read-out and setting: the result for `CCn1nc(CC(C)(C)COC(=O)c2cncs2)c2c1C(=O)NCC1(CCOCC1)C2` [Example 306, [3-(1-ethyl-8-oxo-spiro[6,7-dihydro-4H-pyrazolo[3,4-c]azepine-5,4′-tetrahydro-pyran]-3-yl)-2,2-dimethyl-propyl] thiazole-5-carboxylate] reads less than 100 nM. For `CCn1nc(CC(C)(C)COC(=O)C2CCOCC2)c2c1C(=O)NCC1(CCOCC1)C2` [Example 307, [3-(1-ethyl-8-oxo-spiro[6,7-dihydro-4H-pyrazolo[3,4-c]azepine-5,4′-tetrahydro-pyran]-3-yl)-2,2-dimethyl-propyl] tetrahydropyran-4-carboxylate], the IC50 is less than 100 nM. Still for that read-out and setting: with `CCn1nc(CC(C)(C)COC(=O)c2cnc(C)nc2)c2c1C(=O)NCC1(CCOCC1)C2` [Example 308, [3-(1-ethyl-8-oxo-spiro[6,7-dihydro-4H-pyrazolo[3,4-c]azepine-5,4′-tetrahydropyran]-3-yl)-2,2-dimethyl-propyl] 2-methylpyrimidine-5-carboxylate] the figure was less than 100 nM; with `CCn1nc(CC(C)(C)COC(=O)c2cc(C)n(C)n2)c2c1C(=O)NCC1(CCOCC1)C2` [Example 309, [3-(1-ethyl-8-oxo-spiro[6,7-dihydro-4H-pyrazolo[3,4-c]azepine-5,4′-tetrahydro-pyran]-3-yl)-2,2-dimethyl-propyl] 1,5-dimethylpyrazole-3-carboxylate], less than 100 nM; with `CCn1nc(CC(C)(C)COC(=O)c2csc(C)n2)c2c1C(=O)NCC1(CCOCC1)C2` [Example 310, [3-(1-ethyl-8-oxo-spiro[6,7-dihydro-4H-pyrazolo[3,4-c]azepine-5,4′-tetrahydro-pyran]-3-yl)-2,2-dimethyl-propyl] 2-methylthiazole-4-carboxylate], less than 100 nM.

As to `CCn1nc(CC(C)(C)COC(=O)c2cnc(C)s2)c2c1C(=O)NCC1(CCOCC1)C2` [Example 311, [3-(1-ethyl-8-oxo-spiro[6,7-dihydro-4H-pyrazolo[3,4-c]azepine-5,4′-tetrahydropyran]-3-yl)-2,2-dimethyl-propyl] 2-methylthiazole-5-carboxylate], the IC50 was less than 100 nM. `CCn1nc(CC(C)(C)COC(=O)C2CCN(C)CC2)c2c1C(=O)NCC1(CCOCC1)C2` [Example 312, [3-(1-ethyl-8-oxo-spiro[6,7-dihydro-4H-pyrazolo[3,4-c]azepine-5,4′-tetrahydropyran]-3-yl)-2,2-dimethyl-propyl] 1-methylpiperidine-4-carboxylate]: the IC50 lay within 100 to 500 nM. For `CCn1nc(CC(C)(C)COC(=O)c2cc(C)nc(C)c2)c2c1C(=O)NCC1(CCOCC1)C2` [Example 313, [3-(1-ethyl-8-oxo-spiro[6,7-dihydro-4H-pyrazolo[3,4-c]azepine-5,4′-tetrahydropyran]-3-yl)-2,2-dimethyl-propyl] 2,6-dimethylpyridine-4-carboxylate], the IC50 is less than 100 nM.

These data come from US10793580B2, “Substituted pyrazoloazepin-8-ones and their use as phosphodiesterase inhibitors” (LEO Pharma A/S, priority 2016, dated 2020).
